Data: patent US12258329B2 (Merck Sharp & Dohme LLC, priority 2018, dated 2025)
pEC50: −log10 of the molar value.

test system: infected PBMCs (VSV-G pseudotyped HIV virus VSV-G/pNLG1-P2A-ΔEnv); experiment: cells; format: cell-based, human; settings: Homo sapiens, PBMC, read-out: TACK EC50

Compound | pEC50
Cc1nc(C)c(Cn2cnc(C(F)(F)C(F)(F)F)c(Oc3cc(Br)cc(C#N)c3)c2=O)c(=O)[nH]1 [Example 86, 3-bromo-5-((1-((2,4-dimethyl-6-oxo-1,6-dihydropyrimidin-5-yl)methyl)-6-oxo-4-(perfluoroethyl)-1,6-dihydro-pyrimidin-5-yl)oxy)benzonitrile] | 6.33
Cc1nc(C)c(Cn2cnc(C(F)(F)F)c(Oc3cc(Cl)cc(C#N)c3F)c2=O)c(=O)[nH]1 [Example 92, 5-chloro-3-((1-((2,4-dimethyl-6-oxo-1,6-dihydropyrimidin-5-yl)methyl)-6-oxo-4-(trifluoromethyl)-1,6-dihydropyrimidin-5-yl)oxy)-2-fluorobenzonitrile] | 6.55
Cc1nc(C)c(Cn2cnc(C(C)F)c(Oc3cc(Cl)cc(C#N)c3F)c2=O)c(=O)[nH]1 (single isomer, unassigned) [Example 30] | 6.69
Cc1cc(C#N)cc(Oc2c(C(F)(F)C(F)(F)F)ncn(Cc3c(C)nc(C)[nH]c3=O)c2=O)c1 [Example 88] | 6.40
Cc1nc(C)c(Cn2cnc(C(C)F)c(Oc3c(C)cc(C#N)cc3C)c2=O)c(=O)[nH]1 (single isomer, unassigned) [Example 43, (S) or (R)-4-((1-((2,4-dimethyl-6-oxo-1,6-dihydropyrimidin-5-yl)methyl)-4-(1-fluoroethyl)-6-oxo-1,6-dihydropyrimidin-5-yl)oxy)-3,5-dimethylbenzonitrile] | 6.36
Cc1nc(C)c(Cn2cnc(C(F)(F)C(F)(F)F)c(Oc3c(C)cc(C#N)cc3Cl)c2=O)c(=O)[nH]1 [Example 95, 3-chloro-4-((1-((2,4-dimethyl-6-oxo-1,6-dihydropyrimidin-5-yl)methyl)-6-oxo-4-(perfluoroethyl)-1,6-dihydropyrimidin-5-yl)oxy)-5-methylbenzonitrile] | 6.75
Cc1c(C#N)cc(C(F)F)cc1Oc1c(C(F)(F)C(F)F)ncn(Cc2cnc(-c3cnn(C)c3)[nH]c2=O)c1=O [Example 47, 5-(difluoromethyl)-2-methyl-3-((1-((2-(1-methyl-1H-pyrazol-4-yl)-6-oxo-1,6-dihydropyrimidin-5-yl)methyl)-6-oxo-4-(1,1,2,2-tetrafluoroethyl)-1,6-dihydropyrimidin-5-yl)oxy)benzonitrile] | 6.40
Cc1nc(C)c(Cn2cnc(C(F)(F)C(F)(F)F)c(Oc3cc(C(F)F)cc(C#N)c3C)c2=O)c(=O)[nH]1 [Example 83] | 6.60
Cc1cc(C#N)c(C)c(Oc2c(Br)ncn(Cc3c(C)nc(C)[nH]c3=O)c2=O)c1 [Example 26, 3-((4-bromo-1-((2,4-dimethyl-6-oxo-1,6-dihydropyrimidin-5-yl)methyl)-6-oxo-1,6-dihydropyrimidin-5-yl)oxy)-2,5-dimethylbenzonitrile] | 6.38
Cc1ncc(Cn2cnc(C(F)(F)C(F)F)c(Oc3cc(C#N)cc(C(F)F)c3)c2=O)c(=O)[nH]1 [Example 2, 3-(difluoromethyl)-5-((1-((2-methyl-6-oxo-1,6-dihydropyrimidin-5-yl)methyl)-6-oxo-4-(1,1,2,2-tetrafluoroethyl)-1,6-dihydropyrimidin-5-yl)oxy)benzonitrile] | 6.39
Cc1nc(CCCO)[nH]c(=O)c1Cn1cnc(C(F)(F)C(F)F)c(Oc2cc(C(F)F)cc(C#N)c2C)c1=O [Example 49, 5-(difluoromethyl)-3-((1-((2-(3-hydroxypropyl)-4-methyl-6-oxo-1,6-dihydropyrimidin-5-yl)methyl)-6-oxo-4-(1,1,2,2-tetrafluoroethyl)-1,6-dihydropyrimidin-5-yl)oxy)-2-methylbenzonitrile] | 6.56
Cc1nc(N)c(Cn2cnc(C(F)(F)C(F)F)c(Oc3cc(C(F)F)cc(C#N)c3C)c2=O)c(=O)[nH]1 [Example 59, 3-((1-((4-amino-2-methyl-6-oxo-1,6-dihydropyrimidin-5-yl)methyl)-6-oxo-4-(1,1,2,2-tetrafluoroethyl)-1,6-dihydropyrimidin-5-yl)oxy)-5-(difluoromethyl)-2-methylbenzonitrile] | 6.87
Cc1nc(C)c(Cn2cnc(C(C)(F)F)c(Oc3c(C)cc(C#N)cc3Cl)c2=O)c(=O)[nH]1 [Example 12, 3-chloro-4-((4-(1,1-difluoroethyl)-1-((2,4-dimethyl-6-oxo-1,6-dihydropyrimidin-5-y1)methyl)-6-oxo-1,6-dihydropyrimidin-5-yl)oxy)-5-methylbenzonitrile] | 6.70
COc1cc(C#N)cc(C)c1Oc1c(C(F)(F)C(F)(F)F)ncn(Cc2c(C)nc(C)[nH]c2=O)c1=O [Example 76, 4-((1-((2,4-dimethyl-6-oxo-1,6-dihydropyrimidin-5-yl)methyl)-6-oxo-4-(perfluoroethyl)-1,6-dihydropyrimidin-5-yl)oxy)-3-methoxy-5-methylbenzonitrile] | 6.30
Cc1nc(C)c(Cn2cnc(C(C)(F)F)c(Oc3cc(Cl)cc(C#N)c3Cl)c2=O)c(=O)[nH]1 [Example 3, 2,5-dichloro-3-((4-(1,1-difluoroethyl)-1-((2,4-dimethyl-6-oxo-1,6-dihydropyrimidin-5-yl)methyl)-6-oxo-1,6-dihydropyrimidin-5-yl)oxy)benzonitrile] | 6.38
CCc1nc(C)[nH]c(=O)c1Cn1cnc(C(F)(F)C(F)(F)F)c(Oc2cc(C(F)F)cc(C#N)c2C)c1=O [Example 63, 5-(difluoromethyl)-3-((1-((4-ethyl-2-methyl-6-oxo-1,6-dihydropyrimidin-5-yl)methyl)-6-oxo-4-(perfluoroethyl)-1,6-dihydropyrimidin-5-yl)oxy)-2-methylbenzonitrile] | 6.56
Cc1nc(C)c(Cn2cnc(C(F)(F)F)c(Oc3c(C)cc(C#N)cc3C)c2=O)c(=O)[nH]1 [Example 77, 4-((1-((2,4-dimethyl-6-oxo-1,6-dihydropyrimidin-5-yl)methyl)-6-oxo-4-(trifluoromethyl)-1,6-dihydropyrimidin-5-yl)oxy)-3,5-dimethylbenzonitrile] | 6.39
Cc1ncc(Cn2cnc(C(F)(F)C(F)F)c(Oc3cc(C(F)F)cc(C#N)c3C)c2=O)c(=O)[nH]1 [Example 70, 5-(difluoromethyl)-2-methyl-3-((1-((2-methyl-6-oxo-1,6-dihydropyrimidin-5-yl)methyl)-6-oxo-4-(1,1,2,2-tetra-fluoroethyl)-1,6-dihydropyrimidin-5-yl)oxy)benzonitrile] | 6.69
Cc1nc(N)c(Cn2cnc(C(F)(F)C(F)F)c(Oc3cc(Cl)cc(C#N)c3F)c2=O)c(=O)[nH]1 [Example 39, 3-((1-((4-amino-2-methyl-6-oxo-1,6-dihydropyrimidin-5-yl)methyl)-6-oxo-4-(1,1,2,2-tetrafluoroethyl)-1,6-dihydropyrimidin-5-yl)oxy)-5-chloro-2-fluorobenzonitrile] | 6.58
Cc1cc(C#N)c(F)c(Oc2c(C(C)(F)F)ncn(Cc3c(C)nc(C)[nH]c3=O)c2=O)c1 [Example 41, 3-((4-(1,1-difluoroethyl)-1-((2,4-dimethyl-6-oxo-1,6-dihydropyrimidin-5-yl)methyl)-6-oxo-1,6-dihydropyrimidin-5-yl)oxy)-2-fluoro-5-methylbenzonitrile] | 6.44
Cc1nc(C)c(Cn2cnc(C(F)(F)C(F)F)c(Oc3c(C)cc(C#N)cc3C(F)F)c2=O)c(=O)[nH]1 [Example 20, 3-(difluoromethyl)-4-((1-((2,4-dimethyl-6-oxo-1,6-dihydropyrimidin-5-yl)methyl)-6-oxo-4-(1,1,2,2-tetrafluoroethyl)-1,6-dihydropyrimidin-5-y1)oxy)-5-methylbenzonitrile] | 6.44
